This passage reports inhibition and melting point results from article PMC8344761 (Journal of Enzyme Inhibition and Medicinal Chemistry, 2021).

Broadly, the inhibition is the relative decrease from the control value, in per cent. For orientation: melting point means the temperature of the solid-liquid transition.

One data set has as its target C-Raf (Homo sapiens, UniProt P04049). Put plainly: Raf kinase assay (Kinase HotSpot, Reaction Biology Corp.). Format: biochemical. The settings on record: fixed concentration 1 μM; mean of two independent experiments; read-out: Inhibition (%) C-Raf. As for the experimental part: (§1) Compounds were delivered into each Raf reaction, followed ∼20 min later by addition of a mixture of ATP and [γ-^33P-ATP] (specific activity approx. 500 cpm/pmol, concentration as required) to a final concentration of 10 µM. After incubation for 40 min at 25 °C, the reaction was stopped by the addition of a 3% phosphoric acid solution. Then, the reaction was spotted onto a P30 filtermat, and unbound phosphate was removed by washing three times for 5 min in 75 mM phosphoric acid and once in methanol prior to drying and scintillation counting. […] IC50 values and curve fits were obtained using Prism (GraphPad Software, La Jolla, CA).

Another data set concerns the target B-Raf (Homo sapiens, UniProt P15056). The description is as above. It counts as biochemical. The settings on record: fixed concentration 1 μM; mean of two independent experiments. As for the experimental part:
as §1

The target in the next data set is B-Raf (V600E) (Homo sapiens, UniProt P15056, V600E). The data set is described as above. It counts as biochemical. The settings on record: fixed concentration 1 μM; mean of two independent experiments; B-Raf (V599E). On the procedure:
as §1

The target of a further data set is T1, A-Raf (Homo sapiens, UniProt P10398).
T1 sequence (P10398 1-606): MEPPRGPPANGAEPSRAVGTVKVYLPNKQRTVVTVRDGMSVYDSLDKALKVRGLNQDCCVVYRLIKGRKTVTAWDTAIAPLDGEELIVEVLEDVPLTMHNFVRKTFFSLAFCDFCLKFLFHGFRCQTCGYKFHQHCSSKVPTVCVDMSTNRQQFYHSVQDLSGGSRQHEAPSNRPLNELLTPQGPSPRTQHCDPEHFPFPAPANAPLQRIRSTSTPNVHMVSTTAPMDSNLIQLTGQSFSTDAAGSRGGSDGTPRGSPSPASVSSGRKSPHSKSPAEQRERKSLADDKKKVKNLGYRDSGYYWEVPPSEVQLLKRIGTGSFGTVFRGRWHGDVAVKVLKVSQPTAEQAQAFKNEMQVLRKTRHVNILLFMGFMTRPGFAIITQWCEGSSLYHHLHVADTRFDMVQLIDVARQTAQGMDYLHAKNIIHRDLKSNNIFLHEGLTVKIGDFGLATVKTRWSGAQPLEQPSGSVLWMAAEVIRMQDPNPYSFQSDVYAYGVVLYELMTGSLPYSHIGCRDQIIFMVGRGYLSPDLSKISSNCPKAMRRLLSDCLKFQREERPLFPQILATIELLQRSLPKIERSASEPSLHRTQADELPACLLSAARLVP
The data set is described as follows: Raf kinase assay (Kinase HotSpot, Reaction Biology Corp.). Format: biochemical. The settings on record: fixed concentration 1 μM; mean of two independent experiments. On the procedure: Compounds were delivered into each Raf reaction, followed ∼20 min later by addition of a mixture of ATP and [γ-^33P-ATP] (specific activity approx. 500 cpm/pmol, concentration as required) to a final concentration of 10 µM. […] Then, the reaction was spotted onto a P30 filtermat, and unbound phosphate was removed by washing three times for 5 min in 75 mM phosphoric acid and once in methanol prior to drying and scintillation counting. […] IC50 values and curve fits were obtained using Prism (GraphPad Software, La Jolla, CA).

C-Raf, sequence (P04049 whole entry): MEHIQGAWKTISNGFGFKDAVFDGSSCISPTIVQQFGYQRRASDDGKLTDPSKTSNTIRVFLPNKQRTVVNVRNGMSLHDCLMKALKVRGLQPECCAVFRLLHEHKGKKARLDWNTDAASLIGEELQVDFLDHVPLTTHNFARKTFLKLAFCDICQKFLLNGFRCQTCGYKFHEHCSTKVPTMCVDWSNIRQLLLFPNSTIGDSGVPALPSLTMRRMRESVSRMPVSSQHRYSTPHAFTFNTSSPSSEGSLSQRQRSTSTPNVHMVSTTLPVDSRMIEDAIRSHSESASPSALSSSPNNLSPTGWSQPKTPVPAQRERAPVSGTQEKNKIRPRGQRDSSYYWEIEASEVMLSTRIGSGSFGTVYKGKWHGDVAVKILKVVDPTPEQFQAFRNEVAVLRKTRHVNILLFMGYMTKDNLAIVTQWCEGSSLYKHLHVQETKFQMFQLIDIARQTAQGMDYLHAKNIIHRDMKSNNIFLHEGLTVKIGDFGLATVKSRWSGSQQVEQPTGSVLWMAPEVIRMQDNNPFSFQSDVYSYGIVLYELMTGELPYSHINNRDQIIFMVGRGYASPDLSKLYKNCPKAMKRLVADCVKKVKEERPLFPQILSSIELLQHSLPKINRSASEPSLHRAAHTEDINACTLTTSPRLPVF
B-Raf, sequence (P15056 whole entry): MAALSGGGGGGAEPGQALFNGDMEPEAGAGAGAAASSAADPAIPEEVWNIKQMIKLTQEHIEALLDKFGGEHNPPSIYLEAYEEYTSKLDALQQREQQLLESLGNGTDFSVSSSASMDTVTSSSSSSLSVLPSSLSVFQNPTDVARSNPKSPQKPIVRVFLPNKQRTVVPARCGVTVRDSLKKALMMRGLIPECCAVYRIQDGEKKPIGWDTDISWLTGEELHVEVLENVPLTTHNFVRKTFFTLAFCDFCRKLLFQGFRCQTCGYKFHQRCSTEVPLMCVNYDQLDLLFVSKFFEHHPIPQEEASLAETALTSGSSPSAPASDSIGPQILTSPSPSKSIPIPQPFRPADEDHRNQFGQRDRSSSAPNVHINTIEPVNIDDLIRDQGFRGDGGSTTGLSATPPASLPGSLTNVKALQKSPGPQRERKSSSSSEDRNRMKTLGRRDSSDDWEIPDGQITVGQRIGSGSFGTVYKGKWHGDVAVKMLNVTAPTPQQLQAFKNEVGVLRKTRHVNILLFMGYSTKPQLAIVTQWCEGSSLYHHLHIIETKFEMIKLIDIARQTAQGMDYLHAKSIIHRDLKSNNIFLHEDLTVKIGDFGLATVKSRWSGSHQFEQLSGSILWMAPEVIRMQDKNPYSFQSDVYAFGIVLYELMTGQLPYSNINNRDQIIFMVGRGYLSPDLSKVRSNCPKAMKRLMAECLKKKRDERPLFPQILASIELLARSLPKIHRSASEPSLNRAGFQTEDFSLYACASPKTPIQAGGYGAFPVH
B-Raf (V600E), sequence (P15056 whole entry V600E): as the sequence (P15056 whole entry) above, with V600E counted along it

The molecule `CNC(=O)c1cc(Oc2c(C)nc(NC(=O)NC(=O)c3ccccc3)c(C)c2C)ccn1` [Compound 21, 4-((6-(3-Benzoylureido)-2,4,5-trimethylpyridin-3-yl)oxy)-N-methylpicolinamide] displayed a melting point of 177 °C. On C-Raf, the inhibition at 1 µM stood at 35.2%. Besides, the inhibition at 1 µM on B-Raf turned out to be 8.6%. In addition, on B-Raf (V600E), the inhibition at 1 µM came to 26.7%. For the same molecule, at A-Raf, the inhibition at 1 µM worked out at 18.9%.

Take `CNC(=O)c1cc(Oc2c(C)nc(NC(=O)Nc3ccc(N)cc3)c(C)c2C)ccn1` [Compound 23, 4-((6-(3-(4-Aminophenyl)ureido)-2,4,5-trimethylpyridin-3-yl)oxy)-N-methylpicolinamide]: the melting point turned out to be 205 °C. Besides, the inhibition at 1 µM on C-Raf amounted to 6.7%. Further, the inhibition at 1 µM on B-Raf came to 0.3%. The inhibition at 1 µM against B-Raf (V600E) was 11.6%. Also, the inhibition at 1 µM against A-Raf was determined as 11%.

With `Cc1nc(NC(=O)Nc2ccc(Cl)c(C(F)(F)F)c2)c(C)c(C)c1OCc1ccccc1` [Compound 24, 1-(5-(Benzyloxy)-3,4,6-trimethylpyridin-2-yl)-3-(4-chloro-3-(trifluoromethyl)phenyl)urea], the melting point was determined as 206 °C. The inhibition at 1 µM on C-Raf was -8.3%. Besides, the inhibition at 1 µM on B-Raf is -19.3%. In addition, the inhibition at 1 µM on B-Raf (V600E) is 4.4%. Also, the inhibition at 1 µM at A-Raf is 11.9%.

Regarding `CNC(=O)c1cc(Oc2c(C)nc(NC(=O)Nc3ccc(Cl)c(C(F)(F)F)c3)nc2C)ccn1` [Compound 28, 4-((2-(3-(4-Chloro-3-(trifluoromethyl)phenyl)ureido)-4,6-dimethylpyrimidin-5-yl)oxy)-N-methylpicolinamide], the melting point was determined as 251 °C. Also, the inhibition at 1 µM at C-Raf came out at 91%. For the same molecule, at B-Raf, the inhibition at 1 µM amounted to 48.5%. Further, the inhibition at 1 µM at B-Raf (V600E) came to 75.2%. In addition, the inhibition at 1 µM against A-Raf stood at 72.4%.
